Measurements from patent US8927500B2, “Peptidomimetic macrocycles” (Aileron Therapeutics, Inc., priority 2012, dated 2015).
Read-outs that look alike come from different tables or passages of the source.

What was measured:
MDM2 = MDM2 (Homo sapiens, UniProt Q00987); experiment: Competitive fluorescence polarization assay for MDM2; format: binding; details: competitive FP assay, MDM2
MDMX = biological target: T1, MDMX (Homo sapiens, UniProt O15151); experiment: Competitive fluorescence polarization assay for MDMX; format: binding; details: competitive FP assay
T1 sequence (O15151 1-125): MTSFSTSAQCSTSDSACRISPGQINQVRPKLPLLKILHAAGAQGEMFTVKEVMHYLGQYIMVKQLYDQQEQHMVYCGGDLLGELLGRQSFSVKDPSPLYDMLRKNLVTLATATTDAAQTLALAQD

Caspase 3 = Caspase 3 detection assay in SJSA1 cells; format: cell-based; details: 48 h, Caspase 3 activation over DMSO-treated cells; for caspase 0.3 uM: 0.3 uM peptide; for caspase 3 uM: 3 uM peptide; for caspase 10 uM: 10 uM peptide; for caspase 30 uM: 30 uM peptide; for caspase 1 uM: 1 uM peptide
SJSA-1 cells = experiment: Cell lysis by peptidomimetic macrocycles (LDH release); format: cell-based; details: 1 h at 37C
Procedure: On the day of the assay, media was exchanged with RPMI 1% FBS media, 90 uL of media per well.
10 mM stock solutions of the peptidomimetic macrocycles were prepared in 100% DMSO.
The negative control (non-lytic) sample was 0.5% DMSO alone and positive control (lytic) samples include 10 uM Melittin and 1% Triton X-100.
Cell plates were incubated for 1 hour at 37C. After the 1 hour incubation, the morphology of the cells is examined by microscope and then the plates were centrifuged at 1200 rpm for 5 minutes at room temperature. 40 uL of supernatant for each peptidomimetic macrocycle and control sample is transferred to clear assay plates.

MDM2, sequence (Q00987 1-125): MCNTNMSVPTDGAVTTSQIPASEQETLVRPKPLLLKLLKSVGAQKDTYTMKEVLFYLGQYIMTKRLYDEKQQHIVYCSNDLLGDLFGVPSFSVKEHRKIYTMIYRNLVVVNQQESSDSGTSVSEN

SMILES	IC50 (MDM2; read-out: IC50 (MDM2))	Ki (MDM2; read-out: Ki (MDM2))	IC50 (MDMX; read-out: IC50 (MDMX))	Ki (MDMX; read-out: Ki (MDMX))	caspase 0.3 uM (Caspase 3)	caspase 3 uM (Caspase 3)	caspase 10 uM (Caspase 3)	caspase 30 uM (Caspase 3)	6.25 uM % Lysed cells (1 h LDH) (SJSA-1 cells)	25 uM % Lysed cells (1 h LDH) (SJSA-1 cells)	50 uM % Lysed cells (1 h LDH) (SJSA-1 cells)	IC50 (MDM2; IC50 (MDM2))	Ki (MDM2; Ki (MDM2))	IC50 (MDMX; IC50 (MDMX))	Ki (MDMX; Ki (MDMX))	caspase 1 uM (Caspase 3)
CC(=O)N[C@@H](CC(C)C)C(=O)N[C@H](C(=O)N[C@@H](Cc1ccccc1)C(=O)N[C@]1(C)CCCCCCC=CCCC[C@@](C)(C(=O)N[C@@H](CO)C(=O)N[C@H](C(=O)N[C@@H](C)C(N)=O)C(C)C)NC(=O)[C@H](CC(C)C)NC(=O)[C@H](CCC(N)=O)NC(=O)[C@H](C)NC(=O)[C@H](Cc2c[nH]c3ccccc23)NC(=O)[C@H](Cc2ccc(O)cc2)NC(=O)[C@H](C(C)C)NC1=O)[C@@H](C)O (single isomer, unassigned) [compound 139]	< 10 nM	< 10 nM	100 to 1000 nM	10 to 100 nM	1	2	9	18	−2%	−1%	−1%	–	–	–	–	–
CC(=O)N[C@@H](CC(C)C)C(=O)N[C@H](C(=O)N[C@@H](Cc1ccccc1)C(=O)N[C@]1(C)CCCCCCC=CCCC[C@@](C)(C(=O)N[C@@H](CO)C(=O)N[C@H](C(=O)N[C@@H](CO)C(N)=O)C(C)C)NC(=O)[C@H](CC(C)C)NC(=O)[C@H](CCC(N)=O)NC(=O)[C@H](C)NC(=O)[C@H](Cc2c[nH]c3ccccc23)NC(=O)[C@H](Cc2ccc(O)cc2)NC(=O)[C@H](C(C)C)NC1=O)[C@@H](C)O (single isomer, unassigned) [compound 142]	< 10 nM	< 10 nM	10 to 100 nM	10 to 100 nM	1	2	15	20	1%	1%	3%	–	–	–	–	–
CC(=O)N[C@@H](CCC(=O)O)C(=O)N[C@H](C(=O)N[C@@H](Cc1ccccc1)C(=O)N[C@]1(C)CCCCCCC=CCCC[C@@](C)(C(=O)N[C@@H](C)C(=O)N[C@@H](C)C(=O)N[C@@H](C)C(=O)N[C@@H](C)C(=O)N[C@@H](C)C(=O)N[C@H](C)C(N)=O)NC(=O)[C@H](CC(C)C)NC(=O)[C@H](CCC(N)=O)NC(=O)[C@H](C)NC(=O)[C@H](Cc2c[nH]c3ccccc23)NC(=O)[C@H](Cc2ccc(O)cc2)NC(=O)[C@H](CCC(=O)O)NC1=O)[C@@H](C)O (single isomer, unassigned) [compound 341]	–	–	–	–	3	11	14	21	0%	0%	0%	10 to 100 nM	< 10 nM	10 to 100 nM	< 10 nM	8
CC(=O)N[C@@H](CC(C)C)C(=O)N[C@H](C(=O)N[C@@H](Cc1ccccc1)C(=O)N[C@]1(C)CCCCCCC=CCCC[C@@](C)(C(=O)N[C@@H](C)C(=O)N[C@@H](C)C(=O)N[C@@H](C)C(=O)N[C@@H](C)C(=O)N[C@@H](C)C(=O)N[C@@H](C)C(=O)N[C@H](C)C(N)=O)NC(=O)[C@H](CC(C)C)NC(=O)[C@H](CCC(N)=O)NC(=O)[C@H](C)NC(=O)[C@H](Cc2c[nH]c3ccccc23)NC(=O)[C@H](Cc2ccc(O)cc2)NC(=O)[C@H](CCC(=O)O)NC1=O)[C@@H](C)O (single isomer, unassigned) [compound 343]	–	–	–	–	1	2	5	29	0%	0%	0%	10 to 100 nM	< 10 nM	10 to 100 nM	< 10 nM	1

The next lines start with results.

IC50 (MDM2; read-out: IC50 (MDM2))	Ki (MDM2; read-out: Ki (MDM2))	IC50 (MDMX; read-out: IC50 (MDMX))	Ki (MDMX; read-out: Ki (MDMX))	SMILES	caspase 0.3 uM (Caspase 3)	caspase 3 uM (Caspase 3)	caspase 10 uM (Caspase 3)	caspase 30 uM (Caspase 3)	6.25 uM % Lysed cells (1 h LDH) (SJSA-1 cells)	25 uM % Lysed cells (1 h LDH) (SJSA-1 cells)	50 uM % Lysed cells (1 h LDH) (SJSA-1 cells)	IC50 (MDM2; IC50 (MDM2))	Ki (MDM2; Ki (MDM2))	IC50 (MDMX; IC50 (MDMX))	Ki (MDMX; Ki (MDMX))	caspase 1 uM (Caspase 3)
< 10 nM	< 10 nM	100 to 1000 nM	10 to 100 nM	CC(=O)N[C@@H](CC(C)C)C(=O)N[C@H](C(=O)N[C@@H](Cc1ccccc1)C(=O)N[C@]1(C)CCCCCCC=CCCC[C@@](C)(C(=O)N[C@@H](CO)C(=O)N[C@@H](C)C(=O)N[C@@H](CO)C(N)=O)NC(=O)[C@H](CC(C)C)NC(=O)[C@H](CCC(N)=O)NC(=O)[C@H](C)NC(=O)[C@H](Cc2c[nH]c3ccccc23)NC(=O)[C@H](Cc2ccc(O)cc2)NC(=O)[C@H](C(C)C)NC1=O)[C@@H](C)O (single isomer, unassigned) [compound 144]	1	4	10	16	1%	−1%	2%	–	–	–	–	–
< 10 nM	< 10 nM	100 to 1000 nM	10 to 100 nM	CC(=O)N[C@@H](CC(C)C)C(=O)N[C@H](C(=O)N[C@@H](Cc1ccc(F)c(F)c1)C(=O)N[C@]1(C)CCCCCCC=CCCC[C@@](C)(C(=O)N[C@@H](CO)C(=O)N[C@@H](C)C(=O)N[C@@H](C)C(N)=O)NC(=O)[C@H](CC(C)C)NC(=O)[C@H](CCC(N)=O)NC(=O)[C@H](C)NC(=O)[C@H](Cc2c[nH]c3ccccc23)NC(=O)[C@H](Cc2ccc(O)cc2)NC(=O)[C@H](CCC(=O)O)NC1=O)[C@@H](C)O (single isomer, unassigned) [compound 158]	1	–	5	16.33	0%	−2%	–	–	–	–	–	–
< 10 nM	< 10 nM	100 to 1000 nM	10 to 100 nM	CC[C@H](C)[C@H](NC(=O)[C@H](C)NC(=O)[C@H](C)NC(=O)[C@]1(C)CCCC=CCCCCCC[C@@](C)(NC(=O)[C@H](Cc2ccccc2)NC(=O)[C@@H](NC(=O)[C@H](CCC(=O)O)NC(C)=O)[C@@H](C)O)C(=O)N[C@@H](CCC(=O)O)C(=O)N[C@@H](Cc2c[nH]cn2)C(=O)N[C@@H](Cc2c[nH]c3ccccc23)C(=O)N[C@@H](C)C(=O)N[C@@H](CCC(N)=O)C(=O)N[C@@H](CC(C)C)C(=O)N1)C(=O)N[C@H](C)C(N)=O (single isomer, unassigned) [compound 175]	1	5	12	21	3%	1%	0%	–	–	–	–	–
10 to 100 nM	< 10 nM	100 to 1000 nM	10 to 100 nM	CC[C@H](C)[C@H](NC(=O)[C@H](C)NC(=O)[C@H](C)NC(=O)[C@]1(C)CCCC=CCCCCCC[C@@](C)(NC(=O)[C@H](Cc2ccccc2)NC(=O)[C@@H](NC(=O)[C@H](CC(C)C)NC(C)=O)[C@@H](C)O)C(=O)N[C@@H](C)C(=O)N[C@@H](Cc2ccc(O)cc2)C(=O)N[C@@H](Cc2c[nH]c3ccccc23)C(=O)N[C@@H](C)C(=O)N[C@@H](C)C(=O)N[C@@H](CC(C)C)C(=O)N1)C(=O)N[C@H](C)C(N)=O (single isomer, unassigned) [compound 203]	1	3	12	10	0%	2%	2%	–	–	–	–	–
< 10 nM	< 10 nM	100 to 1000 nM	10 to 100 nM	CC(=O)N[C@@H](CC(C)C)C(=O)N[C@H](C(=O)N[C@@H](Cc1ccccc1)C(=O)N[C@]1(C)CCCCCCC=CCCC[C@@](C)(C(=O)N[C@@H](C)C(=O)N[C@@H](C)C(=O)N[C@@H](Cc2ccccc2)C(=O)N[C@H](C)C(N)=O)NC(=O)[C@H](CC(C)C)NC(=O)[C@H](CCC(N)=O)NC(=O)[C@H](C)NC(=O)[C@H](Cc2c[nH]c3ccccc23)NC(=O)[C@H](Cc2ccc(O)cc2)NC(=O)[C@H](CCC(=O)O)NC1=O)[C@@H](C)O (single isomer, unassigned) [compound 218]	1	2	8	18	0%	−4%	1%	–	–	–	–	–
< 10 nM	< 10 nM	10 to 100 nM	10 to 100 nM	CC(=O)N[C@@H](CC(C)C)C(=O)N[C@H](C(=O)N[C@@H](Cc1ccccc1)C(=O)N[C@]1(C)CCCCCCC=CCCC[C@@](C)(C(=O)N[C@@H](C)C(=O)N[C@@H](C)C(=O)N[C@H](C(=O)N[C@H](C)C(N)=O)C(C)C)NC(=O)[C@H](CC(C)C)NC(=O)[C@H](CCC(N)=O)NC(=O)[C@H](C)NC(=O)[C@H](Cc2c[nH]c3ccccc23)NC(=O)[C@H](Cc2ccc(O)cc2)NC(=O)[C@H](CCC(=O)O)NC1=O)[C@@H](C)O (single isomer, unassigned) [compound 221]	1	3	6	12	3%	3%	11%	–	–	–	–	–
